Numbers after ± are expanded uncertainties.
Conditions: 101.33 kPa, Crystal, Vacuum adiabatic calorimetry

SMILES	molar entropy (10 K) [J/K/mol]	molar entropy (20 K) [J/K/mol]	molar entropy (30 K) [J/K/mol]	molar entropy (40 K) [J/K/mol]	molar entropy (50 K) [J/K/mol]	molar entropy (60 K) [J/K/mol]	molar entropy (70 K) [J/K/mol]	molar entropy (80 K) [J/K/mol]	molar entropy (90 K) [J/K/mol]	molar entropy (100 K) [J/K/mol]	molar entropy (110 K) [J/K/mol]	molar entropy (120 K) [J/K/mol]	molar entropy (130 K) [J/K/mol]	molar entropy (140 K) [J/K/mol]	molar entropy (150 K) [J/K/mol]	molar entropy (160 K) [J/K/mol]	molar entropy (170 K) [J/K/mol]	molar entropy (180 K) [J/K/mol]	molar entropy (190 K) [J/K/mol]	molar entropy (200 K) [J/K/mol]	further results
O=C(CO)[C@@H](O)[C@@H](O)[C@H](O)CO [D-(-)-tagatose]	0.24 ± 0.02	2.37 ± 0.04	6.67 ± 0.12	12.43 ± 0.2	19.05 ± 0.3	26.17 ± 0.4	33.58 ± 0.52	41.15 ± 0.63	48.83 ± 0.78	56.57 ± 0.89	64.33 ± 1	72.1 ± 1.1	79.86 ± 1.2	87.6 ± 1.4	95.33 ± 1.5	103.03 ± 1.6	110.71 ± 1.7	118.38 ± 1.8	126.03 ± 1.9	133.66 ± 2	molar entropy (210 K): 141.29 ± 2.1 J/K/mol; molar entropy (220 K): 148.91 ± 2.3 J/K/mol; molar entropy (230 K): 156.53 ± 2.4 J/K/mol; molar entropy (240 K): 164.14 ± 2.5 J/K/mol; molar entropy (250 K): 171.76 ± 2.6 J/K/mol; molar entropy (260 K): 179.37 ± 2.7 J/K/mol; molar entropy (270 K): 187 ± 2.8 J/K/mol; molar entropy (280 K): 194.64 ± 3 J/K/mol; molar entropy (290 K): 202.3 ± 3.1 J/K/mol; molar entropy (298.15 K): 208.54 ± 3.2 J/K/mol; molar entropy (300 K): 209.96 ± 3.2 J/K/mol; molar entropy (310 K): 217.63 ± 3.3 J/K/mol; molar entropy (320 K): 225.31 ± 3.4 J/K/mol; molar entropy (330 K): 232.99 ± 3.5 J/K/mol
O=C(CO)[C@@H](O)[C@H](O)[C@H](O)CO [D-fructose]	0.22 ± 0.02	2.49 ± 0.05	7.15 ± 0.12	13.3 ± 0.21	20.28 ± 0.32	27.72 ± 0.43	35.42 ± 0.54	43.25 ± 0.66	51.17 ± 0.81	59.14 ± 0.93	67.11 ± 1.1	75.09 ± 1.2	83.05 ± 1.3	91 ± 1.4	98.92 ± 1.5	106.81 ± 1.6	114.68 ± 1.8	122.52 ± 1.9	130.34 ± 2	138.14 ± 2.1	molar entropy (210 K): 145.91 ± 2.2 J/K/mol; molar entropy (220 K): 153.67 ± 2.3 J/K/mol; molar entropy (230 K): 161.42 ± 2.5 J/K/mol; molar entropy (240 K): 169.16 ± 2.6 J/K/mol; molar entropy (250 K): 176.89 ± 2.7 J/K/mol; molar entropy (260 K): 184.62 ± 2.8 J/K/mol; molar entropy (270 K): 192.35 ± 2.9 J/K/mol; molar entropy (280 K): 200.07 ± 3 J/K/mol; molar entropy (290 K): 207.79 ± 3.1 J/K/mol; molar entropy (298.15 K): 214.09 ± 3.2 J/K/mol; molar entropy (300 K): 215.52 ± 3.3 J/K/mol; molar entropy (310 K): 223.26 ± 3.4 J/K/mol; molar entropy (320 K): 231.02 ± 3.5 J/K/mol; molar entropy (330 K): 238.78 ± 3.6 J/K/mol
O=C(CO)[C@H](O)[C@H](O)[C@H](O)CO [D-psicose]	0.25 ± 0.02	2.96 ± 0.05	8.19 ± 0.14	14.69 ± 0.23	21.82 ± 0.34	29.28 ± 0.45	36.93 ± 0.57	44.67 ± 0.68	52.46 ± 0.83	60.26 ± 0.95	68.06 ± 1.1	75.83 ± 1.2	83.57 ± 1.3	91.28 ± 1.4	98.95 ± 1.5	106.58 ± 1.6	114.19 ± 1.8	121.76 ± 1.9	129.31 ± 2	136.83 ± 2.1	molar entropy (210 K): 144.33 ± 2.2 J/K/mol; molar entropy (220 K): 151.81 ± 2.3 J/K/mol; molar entropy (230 K): 159.28 ± 2.4 J/K/mol; molar entropy (240 K): 166.73 ± 2.5 J/K/mol; molar entropy (250 K): 174.17 ± 2.6 J/K/mol; molar entropy (260 K): 181.61 ± 2.8 J/K/mol; molar entropy (270 K): 189.03 ± 2.9 J/K/mol; molar entropy (280 K): 196.45 ± 3 J/K/mol; molar entropy (290 K): 203.86 ± 3.1 J/K/mol; molar entropy (298.15 K): 209.9 ± 3.2 J/K/mol; molar entropy (300 K): 211.27 ± 3.2 J/K/mol; molar entropy (310 K): 218.67 ± 3.3 J/K/mol; molar entropy (320 K): 226.07 ± 3.4 J/K/mol; molar entropy (330 K): 233.48 ± 3.5 J/K/mol
